Results taken from patent publication US12552783B2, “Modulators of proteolysis and associated methods of use” (Arvinas Operations, Inc., priority 2018, dated 2026).

Biological target: KRas (Homo sapiens, UniProt P01116, G12C)
Test: KRas degradation in SW1573 cells by Western blot, normalized to GAPDH (data of Table 14)
Type: cell-based
Conditions: SW1573 cells
Outline: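 SW1573 cells, homozygous for the KRas G12C mutation and maintained in DMEM with 10% FBS and 1% penicillin-streptomycin, were seeded in 12-well plates, allowed to attach overnight at 37° C. under 5% CO2, then serum-starved for 24 hours before compound exposure. KRas levels were measured by Western blot, normalized to GAPDH, and compared with DMSO controls to give percent degradation, DC50 and Dmax.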

Measured: Percent Degradation at Indicated Concentration (μM)

C=CC(=O)N1CCN(c2nc(O[C@H](C)CN3CCC(OCCOc4ccc5c(c4)CN(C4CCC(=O)NC4=O)C5=O)CC3)nc3c2CCN(c2cc(O)cc4ccccc24)C3)CC1 (stereo partly shown) [compound 421]
C (Percent Degradation: C ≤ 35): 0.1 μM | 0.3 μM | 1 μM

C=CC(=O)N1CCN(c2nc(OC[C@@H]3C[C@@H](OCCOCCOc4ccc5c(c4)C(=O)N(C4CCC(=O)NC4=O)C5=O)CN3C)nc3c2CCN(c2cccc4ccccc24)C3)C[C@@H]1CC#N (stereo partly drawn) [compound 503, 2-((2S)-1-acryloyl-4-(2-(((2S,4R)-4-(2-(2-((2-(2,6-dioxopiperidin-3-yl)-1,3-dioxoisoindolin-5-yl)oxy)ethoxy)ethoxy)-1-methylpyrrolidin-2-yl)methoxy)-7-(naphthalen-1-yl)-5,6,7,8-tetrahydropyrido[3,4-d]pyrimidin-4-yl)piperazin-2-yl)acetonitrile]
C (Percent Degradation: C ≤ 35): 0.03 μM | 0.1 μM | 0.3 μM | 1 μM

C=CC(=O)N1CCN(c2nc(O[C@H](C)CN3CCC(OCCOc4ccc5c(c4)C(=O)N(C4CCC(=O)NC4=O)C5=O)CC3)nc3c(F)c(-c4cc(O)cc5ccccc45)c(Cl)cc23)CC1 (stereo partly drawn) [compound 426, 5-(2-((1-((2R)-2-((4-(4-acryloylpiperazin-1-yl)-6-chloro-8-fluoro-7-(3-hydroxynaphthalen-1-yl)quinazolin-2-yl)oxy)propyl)piperidin-4-yl)oxy)ethoxy)-2-(2,6-dioxopiperidin-3-yl)isoindoline-1,3-dione]
C (Percent Degradation: C ≤ 35): 0.1 μM | 0.3 μM | 1 μM

C=CC(=O)N1CCN(c2nc(O[C@H](C)CN3CCC(OCCOCCOCCOCCOCCOc4cc(C(C(=O)N5C[C@H](O)C[C@H]5C(=O)N[C@@H](C)c5ccc(-c6scnc6C)cc5)C(C)C)on4)CC3)nc3c(F)c(-c4cc(O)cc5ccccc45)c(Cl)cc23)CC1 (stereo in doubt) [compound 532, (2S,4R)-1-((2R)-2-(3-((14-((1-((2R)-2-((4-(4-acryloylpiperazin-1-yl)-6-chloro-8-fluoro-7-(3-hydroxynaphthalen-1-yl)quinazolin-2-yl)oxy)propyl)piperidin-4-yl)oxy)-3,6,9,12-tetraoxatetradecyl)oxy)isoxazol-5-yl)-3-methylbutanoyl)-4-hydroxy-N-((S)-1-(4-(4-methylthiazol-5-yl)phenyl)ethyl)pyrrolidine-2-carboxamide]
C (Percent Degradation: C ≤ 35): 0.03 μM | 0.1 μM | 0.3 μM

C=CC(=O)N1CCN(c2nc(O[C@H](C)CN3CCC(OCCOCCOCCOCCOc4cc(-c5scnc5C)ccc4CNC(=O)[C@@H]4C[C@@H](O)CN4C(=O)[C@@H](c4cc(C)no4)C(C)C)CC3)nc3c2CCN(c2cc(O)cc4ccccc24)C3)CC1 [compound 442]
C (Percent Degradation: C ≤ 35): 0.1 μM | 0.3 μM | 1 μM

C=CC(=O)N1CCN(c2nc(O[C@H](C)CN3CCC(OCCOCCOCCOCCOCCOc4cc(-c5scnc5C)ccc4CNC(=O)[C@@H]4C[C@@H](O)CN4C(=O)[C@H](c4cc(C)no4)C(C)C)CC3)nc3c2CCN(c2cc(O)cc4ccccc24)C3)CC1 [compound 444]
C (Percent Degradation: C ≤ 35): 0.1 μM | 0.3 μM | 1 μM

Cc1ncsc1-c1ccc([C@H](C)NC(=O)[C@@H]2C[C@@H](O)CN2C(=O)[C@@H](NC(=O)COCCOCCOCCOCCO[C@@H]2C[C@@H](COc3nc4c(c(N5CCN(C(N)=O)[C@@H](CC#N)C5)n3)CCN(c3cccc5ccccc35)C4)N(C)C2)C(C)(C)C)cc1 [compound 537, (S)-2-(cyanomethyl)-4-(2-(((2S,4R)-4-(((S)-16-((2S,4R)-4-hydroxy-2-(((S)-1-(4-(4-methylthiazol-5-yl)phenyl)ethyl)carbamoyl)pyrrolidine-1-carbonyl)-17,17-dimethyl-14-oxo-3,6,9,12-tetraoxa-15-azaoctadecyl)oxy)-1-methylpyrrolidin-2-yl)methoxy)-7-(naphthalen-1-yl)-5,6,7,8-tetrahydropyrido[3,4-d]pyrimidin-4-yl)piperazine-1-carboxamide]
C (Percent Degradation: C ≤ 35): 0.3 μM | 1 μM | 3 μM

C=CC(=O)N1CCN(c2nc(O[C@H](C)CN3CCC(OCCOCCOCCOc4ccc5c(c4)C(=O)N(C4CCC(=O)NC4=O)C5=O)CC3)nc3c(F)c(-c4cc(O)cc5ccccc45)c(Cl)cc23)CC1 (stereo partly drawn) [compound 428, 5-(2-(2-(2-((1-((2R)-2-((4-(4-acryloylpiperazin-1-yl)-6-chloro-8-fluoro-7-(3-hydroxynaphthalen-1-yl)quinazolin-2-yl)oxy)propyl)piperidin-4-yl)oxy)ethoxy)ethoxy)ethoxy)-2-(2,6-dioxopiperidin-3-yl)isoindoline-1,3-dione]
C (Percent Degradation: C ≤ 35): 0.1 μM | 0.3 μM | 1 μM

C=CC(=O)N1CCN(c2nc(O[C@H](C)CN3CCC(OCCOCCOCCOCCOc4cc([C@H](C(=O)N5C[C@H](O)C[C@H]5C(=O)N[C@@H](C)c5ccc(-c6scnc6C)cc5)C(C)C)on4)CC3)nc3c(F)c(-c4cc(O)cc5ccccc45)c(Cl)cc23)CC1 [compound 530, (2S,4R)-1-((2R)-2-(3-(2-(2-(2-(2-((1-((2R)-2-((4-(4-acryloylpiperazin-1-yl)-6-chloro-8-fluoro-7-(3-hydroxynaphthalen-1-yl)quinazolin-2-yl)oxy)propyl)piperidin-4-yl)oxy)ethoxy)ethoxy)ethoxy)ethoxy)isoxazol-5-yl)-3-methylbutanoyl)-4-hydroxy-N-((S)-1-(4-(4-methylthiazol-5-yl)phenyl)ethyl)pyrrolidine-2-carboxamide]
C (Percent Degradation: C ≤ 35): 0.03 μM | 0.1 μM | 0.3 μM
